Laboratory results published in PubChem BioAssay (NCI).
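How tested: cells in 96-well plates exposed to compound for 48 hours at five concentrations. GI50 marks 50% less growth. TGI denotes the concentration required for complete inhibition of growth.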

How the values were obtained:
Assay in all cases: NCI tumour cell line growth inhibition, 48 h
SNB-19 CNS = tested on: SNB-19 CNS
SK-MEL-2 melanoma = tested on: SK-MEL-2 melanoma
HS 578T breast = tested on: HS 578T breast
HL-60(TB) leukemia = tested on: HL-60(TB) leukemia
NCI-H226 lung = tested on: NCI-H226 lung
786-0 renal = tested on: 786-0 renal
HCT-116 colon = tested on: HCT-116 colon
HCT-15 colon = tested on: HCT-15 colon
OVCAR-3 ovarian = tested on: OVCAR-3 ovarian
K-562 leukemia = tested on: K-562 leukemia
HT29 colon = tested on: HT29 colon
HOP-62 NSCLC = tested on: HOP-62 NSCLC
SK-MEL-28 melanoma = tested on: SK-MEL-28 melanoma
BT-549 breast = tested on: BT-549 breast
SF-268 CNS = tested on: SF-268 CNS
A549 NSCLC = tested on: A549 NSCLC
HOP-92 NSCLC = tested on: HOP-92 NSCLC
SW-620 colon = tested on: SW-620 colon
MDA-MB-231 breast = tested on: MDA-MB-231 breast
LOX IMVI melanoma = tested on: LOX IMVI melanoma
UACC-257 melanoma = tested on: UACC-257 melanoma
HCC-2998 colon = tested on: HCC-2998 colon
PC-3 prostate = tested on: PC-3 prostate
RPMI-8226 leukemia = tested on: RPMI-8226 leukemia
CAKI-1 renal = tested on: CAKI-1 renal
T-47D breast = tested on: T-47D breast
SK-OV-3 ovarian = tested on: SK-OV-3 ovarian
NCI-H522 lung = tested on: NCI-H522 lung
OVCAR-4 ovarian = tested on: OVCAR-4 ovarian
SK-MEL-5 melanoma = tested on: SK-MEL-5 melanoma
TK-10 renal = tested on: TK-10 renal
UACC-62 melanoma = tested on: UACC-62 melanoma
NCI-H23 lung = tested on: NCI-H23 lung
NCI-H460 lung = tested on: NCI-H460 lung
MALME-3M melanoma = tested on: MALME-3M melanoma
OVCAR-8 ovarian = tested on: OVCAR-8 ovarian
NCI/ADR-RES ovarian = tested on: NCI/ADR-RES ovarian
SR leukemia = tested on: SR leukemia
MOLT-4 leukemia = tested on: MOLT-4 leukemia
SF-295 CNS = tested on: SF-295 CNS
MCF7 breast = tested on: MCF7 breast
SF-539 CNS = tested on: SF-539 CNS
OVCAR-5 ovarian = tested on: OVCAR-5 ovarian
DU-145 prostate = tested on: DU-145 prostate
COLO 205 colon = tested on: COLO 205 colon
UO-31 renal = tested on: UO-31 renal
M14 melanoma = tested on: M14 melanoma
KM12 colon = tested on: KM12 colon
A498 renal = tested on: A498 renal
SNB-75 CNS = tested on: SNB-75 CNS
SN12C renal = tested on: SN12C renal
MDA-MB-435 = tested on: MDA-MB-435
IGROV1 ovarian = tested on: IGROV1 ovarian
CCRF-CEM leukemia = tested on: CCRF-CEM leukemia
ACHN renal = tested on: ACHN renal

O=C(NCCCN1CCC(N2CCCCC2)CC1)C1=Cc2cc(Br)ccc2OC1
GI50 (SNB-19 CNS): 14.2 µM | TGI (SNB-19 CNS): 31.3 µM | GI50 (SK-MEL-2 melanoma): 8.14 µM | TGI (SK-MEL-2 melanoma): 22.1 µM | GI50 (HS 578T breast): 12.2 µM | TGI (HS 578T breast): 33.4 µM | GI50 (HL-60(TB) leukemia): 4.94 µM | TGI (HL-60(TB) leukemia): 19.3 µM | GI50 (NCI-H226 lung): 16.9 µM | TGI (NCI-H226 lung): 34.5 µM | GI50 (786-0 renal): 11.2 µM | TGI (786-0 renal): 25.8 µM | GI50 (HCT-116 colon): 5.29 µM | TGI (HCT-116 colon): 21.8 µM | GI50 (HCT-15 colon): 3.47 µM | TGI (HCT-15 colon): 17.1 µM | GI50 (OVCAR-3 ovarian): 12.3 µM | TGI (OVCAR-3 ovarian): 26.8 µM | GI50 (K-562 leukemia): 1.98 µM | TGI (K-562 leukemia): 4.63 µM | GI50 (HT29 colon): 3.21 µM | TGI (HT29 colon): 12.5 µM | GI50 (HOP-62 NSCLC): 13.8 µM | TGI (HOP-62 NSCLC): 27.2 µM | GI50 (SK-MEL-28 melanoma): 1.83 µM | TGI (SK-MEL-28 melanoma): 3.54 µM | GI50 (BT-549 breast): 13.9 µM | TGI (BT-549 breast): 33 µM | GI50 (SF-268 CNS): 3.51 µM | TGI (SF-268 CNS): 13 µM | GI50 (A549 NSCLC): 5.66 µM | TGI (A549 NSCLC): 20.1 µM | GI50 (HOP-92 NSCLC): 3.68 µM | TGI (HOP-92 NSCLC): 19.8 µM | GI50 (SW-620 colon): 5.16 µM | TGI (SW-620 colon): 19 µM | GI50 (MDA-MB-231 breast): 3.62 µM | TGI (MDA-MB-231 breast): 13.8 µM | GI50 (LOX IMVI melanoma): 2.59 µM | TGI (LOX IMVI melanoma): 5.73 µM | GI50 (UACC-257 melanoma): 1.9 µM | TGI (UACC-257 melanoma): 3.89 µM | GI50 (HCC-2998 colon): 13.5 µM | TGI (HCC-2998 colon): 27.2 µM | GI50 (PC-3 prostate): 11.7 µM | TGI (PC-3 prostate): 26.8 µM | GI50 (RPMI-8226 leukemia): 4.54 µM | TGI (RPMI-8226 leukemia): 22.4 µM | GI50 (CAKI-1 renal): 2.46 µM | TGI (CAKI-1 renal): 6.09 µM | GI50 (T-47D breast): 2.04 µM | TGI (T-47D breast): 4.98 µM | GI50 (SK-OV-3 ovarian): 16.2 µM | TGI (SK-OV-3 ovarian): 30.9 µM | GI50 (NCI-H522 lung): 2.32 µM | TGI (NCI-H522 lung): 6.12 µM | GI50 (OVCAR-4 ovarian): 10 µM | TGI (OVCAR-4 ovarian): 32 µM | GI50 (SK-MEL-5 melanoma): 1.89 µM | TGI (SK-MEL-5 melanoma): 3.61 µM | GI50 (TK-10 renal): 14.3 µM | TGI (TK-10 renal): 27.7 µM | GI50 (UACC-62 melanoma): 1.83 µM | TGI (UACC-62 melanoma): 3.49 µM | GI50 (NCI-H23 lung): 16.9 µM | TGI (NCI-H23 lung): 36.2 µM | GI50 (NCI-H460 lung): 8.43 µM | TGI (NCI-H460 lung): 23.6 µM | GI50 (MALME-3M melanoma): 2.11 µM | TGI (MALME-3M melanoma): 3.89 µM | GI50 (OVCAR-8 ovarian): 4.82 µM | TGI (OVCAR-8 ovarian): 26.9 µM | GI50 (NCI/ADR-RES ovarian): 19.1 µM | TGI (NCI/ADR-RES ovarian): 52.2 µM | GI50 (SR leukemia): 2.5 µM | TGI (SR leukemia): 6.15 µM | GI50 (MOLT-4 leukemia): 7.41 µM | TGI (MOLT-4 leukemia): 26.3 µM | GI50 (SF-295 CNS): 8.58 µM | TGI (SF-295 CNS): 24.8 µM | GI50 (MCF7 breast): 4.45 µM | TGI (MCF7 breast): 17.1 µM | GI50 (SF-539 CNS): 2.09 µM | TGI (SF-539 CNS): 5.04 µM | GI50 (OVCAR-5 ovarian): 19.9 µM | TGI (OVCAR-5 ovarian): 70.2 µM | GI50 (DU-145 prostate): 15.5 µM | TGI (DU-145 prostate): 30.4 µM | GI50 (COLO 205 colon): 2.16 µM | TGI (COLO 205 colon): 4.29 µM | GI50 (UO-31 renal): 6.71 µM | TGI (UO-31 renal): 20.4 µM | GI50 (M14 melanoma): 2.22 µM | TGI (M14 melanoma): 4.71 µM | GI50 (KM12 colon): 13.7 µM | TGI (KM12 colon): 27.8 µM | GI50 (A498 renal): 3.88 µM | TGI (A498 renal): 18.7 µM | GI50 (SNB-75 CNS): 10.9 µM | TGI (SNB-75 CNS): 23.3 µM | GI50 (SN12C renal): 10.4 µM | TGI (SN12C renal): 24.1 µM | GI50 (MDA-MB-435): 1.69 µM | TGI (MDA-MB-435): 3.55 µM | GI50 (IGROV1 ovarian): 15.9 µM | TGI (IGROV1 ovarian): 39.4 µM | GI50 (CCRF-CEM leukemia): 4.24 µM | TGI (CCRF-CEM leukemia): 20.2 µM | GI50 (ACHN renal): 10.2 µM | TGI (ACHN renal): 27 µM
